Test results as given in patent US8835506B2, “Methods and related compositions for the treatment of cancer” (STC.UNM, priority 2008, dated 2014).
Entries after “also recorded” stand apart in the source; their conditions may differ.

Key:
[1] = rare cases, patients exceeding recommended doses; cited from earlier work
[2] = system: PC3 human prostate cancer cells; experiment: Light microscopy of intracellular granularity; format: cell-based; settings: FIG. 3
Text: (§1) Microscopic and Flow Cytometric Scatter Analysis: Light microscopy images of prostate cancer cells in culture were collected using an Olympus IX70 inverted microscope and a 20× objective. Flow cytometric analysis of forward scatter (FSC) and side scatter (SSC) were preformed using the UNM Shared Flow Cytometry Resource on a Cytomation Mo Flo, an Epics Elite, a Becton Dickinson FACScan, or a Becton Dickinson FACS Calibur.

[3] = cited from earlier work
[4] = in vivo; cited from earlier work
LNCaP cells [5] = experiment: Cell proliferation assay (CyQUANT NF); format: cell-based, human; settings: FIG. 7, 4 days
Protocol: (§2) Cell Proliferation Assay: To determine the number of proliferating cells after astemizole treatment, cells were seeded in 96-well tissue culture plates at 5,000 cells per well in 100 uL of DMEM/FCS. Two days after plating, cells were treated with astemizole at the indicated concentrations. Four days after treatment, cell proliferation was determined using the CyQUANT NF Cell Proliferation Assay Kit (Invitrogen, Carlsbad, Calif.) according to the kit instructions.

DU145 cells = experiment: Cell proliferation assay (CyQUANT NF); format: cell-based, human; settings: FIG. 7, 4 days
Protocol: as §2

PC3 cells [6] = experiment: Cell proliferation assay (CyQUANT NF); format: cell-based, human; settings: over a 4 day period
Protocol: as §2

LAPC4 cells = experiment: Cell proliferation assay (CyQUANT NF); format: cell-based, human; settings: FIG. 7, 4 days
Protocol: as §2

[7] = system: PC3 androgen-independent human prostate cancer cells; experiment: Cell death by trypan blue uptake; format: cell-based
Protocol: (§3) Cell Viability Assays: Two assays were used to determine cell viability; propidium iodide exclusion with flow cytometry and trypan blue exclusion with hemacytometry. Cells were treated with astemizole at the indicated concentrations for 24 to 96 hours prior to viability analysis. For propidium iodide cell viability determinations, cells were removed from the dishes with 0.05% trypsin. All cell culture medium was collected for the analysis in order to include any cells that may have released from the plate during the incubation period. Propidium iodide was added at a final concentration of 2 μg/ml and cells were analyzed on a Becton Dickinson FACScan flow cytometer. For trypan blue dye exclusion studies, all cell culture medium and cells removed by trypsinization were collected as above. An aliquot of these cells was re-suspended in 0.4% trypan blue. Both viable and non-viable cell counts were obtained by manual counting using a hemacytometer and light microscopy.

PC3 cells [8] = experiment: Hypodiploid population by propidium iodide incorporation and flow cytometry (apoptosis hallmarks); format: cell-based, human
Text: Multiple mechanisms could account for the cell death observed in cancer cells from treatment with AST. […] Thus, administering the agents identified above that induce intracellular granularity in cancer cells may produce cell death through an autophagic mechanism.

[9] = system: LNCaP human prostate cancer cells; experiment: Cytotoxicity of AST in culture; format: cell-based
Protocol: as §3

prostate cancer cells = experiment: Cell death of human cancer cells cultured with AST; format: cell-based
Protocol: as §3

[10] = system: LC3 II band in CWRv22 cells; experiment: LC3 II band induction (autophagy marker); format: cell-based, human; settings: 10 μM AST, 6 hours
[11] = system: CWRv22 human prostate cancer cells; experiment: Cell death by trypan blue uptake and hemacytometry; format: cell-based
Protocol: as §3

[12] = system: LAPC4 human prostate cancer cells; experiment: Cell death by trypan blue uptake and hemacytometry; format: cell-based
Protocol: as §3

skin cancer cells (SCC) = experiment: Cell death by trypan blue uptake and hemacytometry; format: cell-based; settings: AST up to 15 μM; listed as AST
Protocol: as §3

[13] = cited from earlier work; remark: listed apart in the source
[14] = system: 22Rv1 prostate cancer cells; experiment: Viability by trypan blue exclusion, astemizole alone or with docetaxel or radiation; format: cell-based, human; design: key to action determined with combination therapy: &: Additive action determined with combination therapy.; #: Synergistic action determined with combination therapy; settings: for level of cell killing in combination: 24 hours
Protocol: as §3
Compounds according to the present invention may also function as radiosensitizers in addition to their anticancer activity. A study was performed showing prostate cancer cell killing actions of astemizole in combination with other therapeutic interventions. Astemizole alone produced a decrease in 22Rv1 prostate cancer cell viability with 8 μM 24 hours after treatment. […] This is true of the other agents which are described herein.

LNCaP cells [15] = experiment: HyperCyt high-throughput flow cytometry, side scatter as endpoint for intracellular granularity; cell death seen as adherent cells becoming non-adherent; format: cell-based, human
Protocol: HyperCyt and High-throughput Data Analysis: The HyperCyt® cytometry analysis system interfaces a flow cytometer and an autosampler. While the sampling probe moves from well to well, a peristaltic pump sequentially aspirates a small volume from each well. A bubble of air, created by the continuously running pump, separates samples from individual wells. Sample and bubble volumes are determined by the time the sampling probe is in a well (sip time) or in taking air while moving from well to well (up time). HyperCyt® sampling of a single 384-well plate is completed in less than 15 minutes. This system has been validated using cell-based high-throughput endpoint assays for ligand binding, surface antigen expression, and immunophenotyping.
The air-bubble separated samples, collected by HyperCyt®, are delivered continuously to the cytometer. The data accumulates as a single, time-resolved file with gaps corresponding to air-bubbles. Both forward and side light scattering properties of treated LNCaP cells were measured using a 488 nm laser. Time-resolved data were analyzed by proprietary software (IDLQuery) set to search for 384 separate data clusters. Data from negative (0.1% DMSO) replicate wells were pooled and used to set gates that define granularity in vehicle-treated LNCaP cells. […] A gate is set reflecting this distinction that is then applied to each data cluster. These values are automatically exported to a Microsoft Excel spreadsheet template that calculates percent side scatter shift in individual treated samples.
as §1

advanced prostate cancer = advanced prostate cancer patients, on average; cited from earlier work

Which “serious life-threatening cardiovascular adverse events” value [1] does the source give for “1-[(4-fluorophenyl)methyl]-N-[1-[2-(4-ethoxyphenyl)ethyl]-4-piperidyl]benzoimidazol-2-amine [Astemizole]” here?
Its value is “QT-prolongation, torsades de pointes, and other ventricular arrhythmias”.

And the “intracellular granularity observed by light microscopy” value [2]?
Its value is “increase in intracellular granularity”.

What about the absorption ([3]; from the gastrointestinal tract) of the same molecule?
The absorption was “rapidly absorbed”.

And the excretion ([3]; man)?
Its excretion is “excreted as metabolites chiefly in the feces”.

And the “half-life of the active ingredient” value ([3]; man)?
Its value is “approximately 1 day”.

And the metabolism ([3]; man)?
The metabolism was “extensively metabolized”.

And the “crossing of the blood-brain barrier” value [4]?
Its value is “does not cross the blood-brain barrier”.

And the “prostate cancer cell growth” value (LNCaP cells [5])?
Its value is “significant reduction”.

What about the “prostate cancer cell growth” value (DU145 cells) of the same molecule?
Its value is “significant reduction”.

And the “concentration inhibiting cell growth” value (PC3 cells [6])?
Its value is no less than 1 µM.

And the “prostate cancer cell growth” value (LAPC4 cells)?
The value was “significant reduction”.

And the “time to cell death after treatment” value [7]?
Its value is no more than 24 h.

And the cell death ([7]; 10 μM AST, 48 hours)?
Its cell death is “greater than 25%”.

And the cells dead ([7]; 15 μM AST, 48 hours)?
Its cells dead is roughly 100%.

And the “hallmarks of apoptotic cell death (hypodiploid population)” value (PC3 cells [8])?
The value was “does not produce hallmarks of apoptotic cell death”.

What about the “cell killing by AST treatment” value [9] of the same molecule?
Its value is “dose-response to cell killing”.

And the “concentration at which cells undergo rapid cell death” value (prostate cancer cells)?
Its value is “above 5 μM”.

What about the “LC3 II band associated with autophagic pathways” value [10] of the same molecule?
Its value is “induction of an LC3 II band”.

And the “LC3 II band associated with autophagic pathways” value ([10]; listed as AST)?
Its value is “increase in the LC3 II band”.

And the “cell killing by AST treatment” value [11]?
The value was “dose-response to cell killing”.

And the cells dead ([11]; 6 μM AST, within 24 hours)?
The cells dead was 80%.

What about the “cell killing by AST treatment” value [12] of the same molecule?
Its value is “dose-response to cell killing”.

And the cells dead ([12]; 6 μM AST, within 24 hours)?
The cells dead was 80%.

And the “cell death by AST treatment” value (skin cancer cells (SCC))?
The value was “resistant to cell death; also recorded: not killed”.

What about the protein binding [13] of the same molecule?
Its protein binding is “around 96%”.

What about the “action determined with combination therapy” value (shortened to “action determined”) ([14]; 2 μM astemizole + 10 nM docetaxel) of the same molecule?
Its value is “&”.

What about the “% Viability, Mean (SD)” value ([14]; 2 μM astemizole + 10 nM docetaxel, 24 h, n = 3) of the same molecule?
Its value is 71.3%.

What about the “action determined” value ([14]; 2 μM astemizole + 10 Gy radiation) of the same molecule?
Its value is “&”.

What about the “% Viability, Mean (SD)” value ([14]; 2 μM astemizole + 10 Gy radiation, 24 h, n = 3) of the same molecule?
The value was 63.5%.

What about the “% Viability, Mean (SD)” value ([14]; 2 μM astemizole alone, 24 h, n = 3) of the same molecule?
Its value is 88.2 (4.9) %.

And the “action determined” value ([14]; 4 μM astemizole + 10 nM docetaxel)?
The value was “&”.

And the “% Viability, Mean (SD)” value ([14]; 4 μM astemizole + 10 nM docetaxel, 24 h, n = 3)?
The value was 74.4%.

And the “action determined” value ([14]; 4 μM astemizole + 10 Gy radiation)?
Its value is “#”.

What about the “% Viability, Mean (SD)” value ([14]; 4 μM astemizole + 10 Gy radiation, 24 h, n = 3) of the same molecule?
Its value is 57.4%.

And the “% Viability, Mean (SD)” value ([14]; 4 μM astemizole alone, 24 h, n = 3)?
The value was 90.6 (1.2) %.

What about the “action determined” value ([14]; 8 μM astemizole + 10 nM docetaxel) of the same molecule?
The value was “&”.

What about the “% Viability, Mean (SD)” value ([14]; 8 μM astemizole + 10 nM docetaxel, 24 h, n = 3) of the same molecule?
Its value is 49.7%.

What about the “action determined” value ([14]; 8 μM astemizole + 10 Gy radiation) of the same molecule?
The value was “#”.

And the “% Viability, Mean (SD)” value ([14]; 8 μM astemizole + 10 Gy radiation, 24 h, n = 3)?
Its value is 22.2%.

What about the “% Viability, Mean (SD)” value ([14]; 8 μM astemizole alone, 24 h, n = 3) of the same molecule?
The value was 64.3 (8.1) %.

What about the “cell viability, astemizole alone” value ([14]; 8 μM, 24 hours after treatment) of the same molecule?
The value was “decrease”.

What about the “level of cell killing in combination” value ([14]; 2, 4 and 8 μM astemizole with 10 nM docetaxel) of the same molecule?
The value was “additive levels of cell killing”.

And the “level of cell killing in combination” value ([14]; 2, 4 and 8 μM astemizole with 10 gray radiation)?
The value was “synergistic levels of cell killing”.

What about the “cancer cell intracellular granularity by SSC flow cytometry” value (LNCaP cells [15]; FIG. 2, prostate cancer cells) of the same molecule?
The value was “significantly increase”.

What about the “dose at which cell death is seen” value (LNCaP cells [15]; FIG. 4 dose-response) of the same molecule?
The value was 10 µM.

What about the “dose range of AST-induced increases in intracellular granularity” value (LNCaP cells [15]; FIG. 4 dose-response) of the same molecule?
Its value is “up to 3 μM”.

For CC(=O)O[C@@]12CO[C@@H]1C[C@H](O)[C@@]1(C)C(=O)[C@H](O)C3=C(C)[C@@H](OC(=O)[C@H](O)[C@@H](NC(=O)OC(C)(C)C)c4ccccc4)C[C@@](O)([C@@H](OC(=O)c4ccccc4)[C@H]21)C3(C)C [Taxotere], which prolongation of life (advanced prostate cancer) is on record?
Its prolongation of life is 2.5 months.

With CC(=O)O[C@@]12CO[C@@H]1C[C@H](O)[C@@]1(C)C(=O)[C@H](O)C3=C(C)[C@@H](OC(=O)[C@H](O)[C@@H](NC(=O)OC(C)(C)C)c4ccccc4)C[C@@](O)([C@@H](OC(=O)c4ccccc4)[C@H]21)C3(C)C [docetaxel] as the molecule, how does the viability at 0.01 µM ([14]; Homo sapiens, 22Rv1, 10 nM docetaxel alone (0 μM astemizole), 24 h, n = 3, read-out: % Viability, Mean (SD)) read?
The viability at 0.01 µM was 80.7%.
